Literature values in US20260242330A1, “USE OF AN AMANTADINE MONONITRATE COMPOUND IN MANUFACTURE OF A MEDICAMENT FOR THE PREVENTION AND TREATMENT OF HYPERTENSION” (GUANGZHOU MAGPIE PHARMACEUTICALS CO., LTD., priority 2022, published 2026).

System: 24-hour blood pressure in primary hypertension
Details: cited from earlier work

Compound	average 24-hour dynamic diastolic pressure decrease [mmHg]	average 24-hour dynamic systolic pressure decrease [mmHg]
CCCCC(=O)N(Cc1ccc(-c2ccccc2-c2nnn[nH]2)cc1)[C@H](C(=O)O)C(C)C [valsartan]	6.04	8.08
COCCc1ccc(OCC(O)CNC(C)C)cc1 (centres unmarked) [metoprolol]	4.6	6.66
CCOC(=O)[C@H](CCc1ccccc1)N[C@H]1CCc2ccccc2N(CC(=O)O)C1=O [benazepril]	3.33	6.74
Cc1cccc(Nc2ccncc2S(=O)(=O)NC(=O)NC(C)C)c1 [tolasemide]	2.42	5.92
